From patent US6605595B1, “Avermectin derivatives” (The Kitasato Institute, priority 1999, dated 2003)

Experiments:
Assay type in all cases: in vivo
Caenorhabditis elegans = assay: Antiparasitic activity against Caenorhabditis elegans, 96 well microplate (MIC); conditions: 20° C., observed after 24 and 48 hours
Text: (§1) As model insects for simple determination of antiparasitic and insecticidal activities, those insects are desired which can be easily obtained and bred in laboratories, and have no pathogenicity to a human. Caenorhabditis elegans, an unparasitic eelworm widely used in experiments of genetics, was used as a typical steam worm, and Artemia salina used as feed for tropical fish and named Brine shrimp, was used instead of insects.
Escherichia. coli for the feed of Caenorhabditis elegans (mutant having uracil requirement) was inoculated in a seed medium for E. coli to which a small amount of uracil was added, and cultured with shaking at 27° C. for 1 day. A petri dish of 6 cm diameter was filled with 10 ml of an agar medium for eelworm proliferation, and the medium was solidified. Then 0.5 ml of the culture of E. coli was spread over the medium in the dish, and the dish was incubated at 37° C. to proliferate E. coli. A piece of the agar was collected with a platinum loop from a petri dish in which Caenorhabditis elegans successfully proliferated, and inoculated in petri dishes in which E. coli was proliferated. The petri dishes were incubated at 20° C. to proliferate Caenorhabditis elegans. Since the life of eelworm is about 2 weeks, subculture was carried out every once a week. The eelworms grown with spread on the surface of the petri dish after 3 to 5 days from subculture were used for the experiments.
The agar medium for eelworm proliferation was prepared by mixing the solutions in the following proportion: Solution A: 100 ml, Solution B: 0.1 ml, Solution C: 0.05 ml, Solution D: 0.1 ml and Solution E: 2.5 ml (without pH adjustment), and dispensing each 10 ml portion into petri dishes of 60×15 mm.
In distilled water, 2.0% of bact-trypton (DIFCO Co.), 0.55% of sodium chloride and 0.001% of uracil (SIGMA Co., pH 7.4) were dissolved, and the solution was sterilized in an autoclave at 121° C. for 20 minutes.
(§2) Each well of a 96 well microplate was filled with the solution of the test compound (methanol as a solvent), and the solvent was removed using a vacuum pump, then 250 μl of the assay medium was added to each wells (the assay medium was prepared by dissolving 7.5 mM sodium hydrogencarbonate, 7.5 mM potassium chloride, 7.5 mM calcium chloride dihydrate and 7.5 mM magnesium sulfate heptahydrate in distilled water and adding 0.01% of lecithin thereto), and then the microplate was shaken using a microplate mixer for 15 minutes. To each well, a few individuals of Caenorhabditis elegans were added by softly rubbing the surface of the agar using a toothpick, or a few individuals of Artemia salina were added together with 50 μl of the buffer. The microplate was incubated at 20° C., and then the insects were observed after 24 and 48 hours under a microscope (magnification of 40×). The results were compared to those obtained without addition of the test compound, and evaluated by 4 grades.
(§3) The evaluation results were shown by indications of 4 grades from 0 to 3.
(§4) 1: A little week movements
(§5) Of the 4 grades, Indications 3 and 2 were judged as effective, and Indications 1 and 0 as ineffective. In Table 9, the values for each compound are minimum inhibitory concentrations (MIC) which were required to give Indication 2 (or 3) for Caenorhabditis elegans or Artemia salina. In Table 9, Caenorhabditis elegans and Artemia salina are abbreviated as C.E. and A.S., respectively.

Artemia salina = assay: Insecticidal model activity against Artemia salina (brine shrimp), 96 well microplate (MIC); conditions: 20° C., observed after 24 and 48 hours
Text: as §1
To a buffer for Artemia salina (obtained by dissolving 0.24% of Tris, 2.57% of sodium chloride, 0.47% of magnesium chloride, 0.07% of potassium chloride, 0.02% of sodium carbonate, 0.64% of magnesium sulfate and 0.11% of calcium chloride in distilled water and adjusting the pH to 7.1 with hydrochloric acid), dried eggs of Artemia salina [Tetra Brine Shrimp Eggs, Warner Lambert Co.] were added. The noprius larvae 1 or 2 days after hatching were used for the experiments.
as §2, §3, §4, §5

[1] = system: Adult Ctenocephalides felis; assay: Test on cat fleas / oral absorption; conditions: after 24 hours
Description: Test on cat fleas/oral absorption
Test animals: Adult Ctenocephalides felis
Solvent: Dimethylsulfoxide (DMSO)
20 μl of this formulation are added to 4 ml of citrated cow's blood and stirred.
20 starved adult fleas (of “Georgi” species of Ctenocephalides felis) are introduced into a chamber (of a diameter of 5 cm) which is sealed with gauze at the top and bottom. A metal cylinder, whose base is sealed with parafilm, is placed on the chamber. […] Whereas the blood is heated to 37° C. a temperature of 25° C. is adjusted in the region of the flea chambers. Controls are mixed with the same volume of DMSO without the addition of any of the compounds. The test are repeated three times.
After 24 hours the mortality is determined in %.

[2] = 100 ppm in citrated cow's blood

Structure (SMILES) | C.E. minimum inhibitory concentration (MIC) required to give Indication 2 (or 3) (Caenorhabditis elegans) [µg/mL] | A.S. minimum inhibitory concentration (MIC) required to give Indication 2 (or 3) (Artemia salina) | mortality of fleas ([1]; 10 ppm in citrated cow's blood) [%] | mortality of fleas [1, 2] [%]
CCC(C)C1OC2(C=CC1C)CC1CC(CC=C(C)C(OC3CC(OC)C(OC4CC(OC)C(=CCNC)C(C)O4)C(C)O3)C(C)C=CC=C3COC4C(O)C(C)=CC(C(=O)O1)C34O)O2 (stereo not drawn) [Compound 11] | 0.05 | 0.01 µg/mL |  | 
CCC(C)C1OC2(C=CC1C)CC1CC(CC=C(C)C(OC3CC(OC)C(OC4CC(OC)C(=CC=NO)C(C)O4)C(C)O3)C(C)C=CC=C3COC4C(O)C(C)=CC(C(=O)O1)C34O)O2 (single isomer, unassigned) [Compound 9] | 0.01 | 0.002 µg/mL |  | 
CCC(C)C1OC2(C=CC1C)CC1CC(CC=C(C)C(OC3CC(OC)C(OC4CC(OC)C(=CCOC(=O)c5ccncc5)C(C)O4)C(C)O3)C(C)C=CC=C3COC4C(O[Si](C)(C)C(C)(C)C)C(C)=CC(C(=O)O1)C34O)O2 (stereo not drawn) [Compound 17] | 100 | 100 µg/mL |  | 
CCC(C)C1OC2(C=CC1C)CC1CC(CC=C(C)C(OC3CC(OC)C(OC4CC(OC)C(=CC=NOC)C(C)O4)C(C)O3)C(C)C=CC=C3COC4C(O)C(C)=CC(C(=O)O1)C34O)O2 (single isomer, unassigned) [Compound 13] | 0.01 | 0.002 µg/mL |  | 
CCC(C)C1OC2(C=CC1C)CC1CC(CC=C(C)C(OC3CC(OC)C(OC4CC(OC)C(=CCO)C(C)O4)C(C)O3)C(C)C=CC=C3COC4C(O)C(C)=CC(C(=O)O1)C34O)O2 (stereo not drawn) [Compound 4] | 0.01 | 0.01 µg/mL | 42 | 100
CCC(C)C1OC2(C=CC1C)CC1CC(CC=C(C)C(OC3CC(OC)C(OC4CC(OC)C(=CC=NOC)C(C)O4)C(C)O3)C(C)C=CC=C3COC4C(O)C(C)=CC(C(=O)O1)C34O)O2 (single isomer, unassigned) [Compound 12] | 0.01 | 0.01 µg/mL |  | 
CCC(C)C1OC2(C=CC1C)CC1CC(CC=C(C)C(OC3CC(OC)C(OC4CC(OC)C(=CC=NO)C(C)O4)C(C)O3)C(C)C=CC=C3COC4C(O)C(C)=CC(C(=O)O1)C34O)O2 (single isomer, unassigned) [Compound 10] | 0.01 | 0.002 µg/mL |  | 
CCC(C)C1OC2(C=CC1C)CC1CC(CC=C(C)C(OC3CC(OC)C(OC4CC(OC)C(=CC=O)C(C)O4)C(C)O3)C(C)C=CC=C3COC4C(O)C(C)=CC(C(=O)O1)C34O)O2 (stereo not drawn) [Compound 8] | 0.01 | 0.01 µg/mL |  | 
CCC(C)C1OC2(C=CC1C)CC1CC(CC=C(C)C(OC3CC(OC)C(OC4CC(OC)C(=CCOC(=O)C5CCCN5C(=O)OC(C)(C)C)C(C)O4)C(C)O3)C(C)C=CC=C3COC4C(O)C(C)=CC(C(=O)O1)C34O)O2 (stereo not drawn) [Compound 30] | 0.05 | 0.01 µg/mL |  | 
CCC(C)C1OC2(C=CC1C)CC1CC(CC=C(C)C(OC3CC(OC)C(OC4CC(OC)C(=CC=NNC(N)=O)C(C)O4)C(C)O3)C(C)C=CC=C3COC4C(O)C(C)=CC(C(=O)O1)C34O)O2 (stereo not drawn) [Compound 22] | 0.01 | 0.0005 µg/mL |  | 
C=CCOC(=O)C=C1C(C)OC(OC2C(C)OC(OC3C(C)=CCC4CC(CC5(C=CC(C)C(C(C)CC)O5)O4)OC(=O)C4C=C(C)C(O)C5OCC(=CC=CC3C)C45O)CC2OC)CC1OC (stereo not drawn) [Compound 20] | 0.01 | 0.002 µg/mL |  | 
CCC(C)C1OC2(C=CC1C)CC1CC(CC=C(C)C(OC3CC(OC)C(OC4CC(OC)C(=CC=O)C(C)O4)C(C)O3)C(C)C=CC=C3COC4C(O[Si](C)(C)C(C)(C)C)C(C)=CC(C(=O)O1)C34O)O2 (stereo not drawn) [Compound 5] | 100 | 100 µg/mL |  | 
CCC(C)C1OC2(C=CC1C)CC1CC(CC=C(C)C(OC3CC(OC)C(OC4CC(OC)C(=CCN)C(C)O4)C(C)O3)C(C)C=CC=C3COC4C(O[Si](C)(C)C(C)(C)C)C(C)=CC(C(=O)O1)C34O)O2 (stereo not drawn) [Compound 14] | 100 | 5 µg/mL |  | 
CCC(C)C1OC2(C=CC1C)CC1CC(CC=C(C)C(OC3CC(OC)C(OC4CC(OC)C(=CCOC(=O)c5ccc(Cl)nc5)C(C)O4)C(C)O3)C(C)C=CC=C3COC4C(O)C(C)=CC(C(=O)O1)C34O)O2 (stereo not drawn) [Compound 34] | 0.002 | 0.002 µg/mL |  | 
CCC(C)C1OC2(C=CC1C)CC1CC(CC=C(C)C(OC3CC(OC)C(OC4CC(OC)C(=CC(=O)OC)C(C)O4)C(C)O3)C(C)C=CC=C3COC4C(O[Si](C)(C)C(C)(C)C)C(C)=CC(C(=O)O1)C34O)O2 (stereo not drawn) [Compound 6] | >100 | ≧100 μg/ml |  | 
CCC(C)C1OC2(C=CC1C)CC1CC(CC=C(C)C(OC3CC(OC)C(OC4CC(OC)C(=CC(=O)O)C(C)O4)C(C)O3)C(C)C=CC=C3COC4C(O)C(C)=CC(C(=O)O1)C34O)O2 (stereo not drawn) [Compound 25] | 0.05 | 0.01 µg/mL | 69 | 100
CCC(C)C1OC2(C=CC1C)CC1CC(CC=C(C)C(OC3CC(OC)C(OC4CC(OC)C(=CCO)C(C)O4)C(C)O3)C(C)C=CC=C3COC4C(O[Si](C)(C)C(C)(C)C)C(C)=CC(C(=O)O1)C34O)O2 (stereo not drawn) [Compound 3] | 100 | 20 µg/mL |  | 
CCC(C)C1OC2(CC(=O)C1C)CC1CC(CC=C(C)C(OC3CC(OC)C(OC4CC(OC)C(=CC(=O)OC)C(C)O4)C(C)O3)C(C)C=CC=C3COC4C(O)C(C)=CC(C(=O)O1)C34O)O2 (stereo not drawn) [Compound 41] | 0.01 | 0.01 µg/mL |  | 
CCOC(=O)C=C1C(C)OC(OC2C(C)OC(OC3C(C)=CCC4CC(CC5(C=CC(C)C(C(C)CC)O5)O4)OC(=O)C4C=C(C)C(O[Si](C)(C)C(C)(C)C)C5OCC(=CC=CC3C)C45O)CC2OC)CC1OC (stereo not drawn) [Compound 1] | 100 | 100 µg/mL |  | 
